Assay results taken from ChEMBL document CHEMBL1275506, “Expanded-spectrum beta-lactamase PER-1 in an environmental Aeromonas media isolate from Switzerland” (2008).
Values after ≈ are worked out from the molar mass of the structure shown.

What was measured:
Type in all cases: functional
Aeromonas sp. [1] = assay: Antibacterial activity against Aeromonas sp. isolate A72 by Etest
Escherichia coli [2] = assay: Antibacterial activity against Escherichia coli J53 harboring plasmid pAM carrying beta-lactamase PER-1 by Etest
Escherichia coli [3] = assay: Antibacterial activity against Escherichia coli J53 by Etest
Aeromonas sp. [4] = assay: Antibacterial activity against Aeromonas sp. isolate A72 by Etest in presence of clavulanic acid
Escherichia coli [5] = assay: Antibacterial activity against Escherichia coli J53 harboring plasmid pAM carrying beta-lactamase PER-1 by Etest in presence of clavulanic acid
Escherichia coli [6] = assay: Antibacterial activity against Escherichia coli J53 by Etest in presence of clavulanic acid

Row | Structure (SMILES) | MIC (Aeromonas sp. [1]) [µg/mL] | MIC (Escherichia coli [2]) [µg/mL] | MIC (Escherichia coli [3]) [µg/mL] | MIC (Aeromonas sp. [4]) [µg/mL] | MIC (Escherichia coli [5]) [µg/mL] | MIC (Escherichia coli [6]) [µg/mL]
1 | CC(C)(O/N=C(\C(=O)N[C@@H]1C(=O)N2C(C(=O)[O-])=C(C[n+]3ccccc3)CS[C@H]12)c1csc(N)n1)C(=O)O [CEFTAZIDIME] | > 256 | > 256 | 0.06 (≈ 0.11 µM) | – | – | –
2 | CC1(C)S[C@@H]2[C@H](NC(=O)[C@H](C(=O)O)c3ccsc3)C(=O)N2[C@H]1C(=O)O [TICARCILLIN] | > 256 | > 256 | 4 (≈ 10.4 µM) | 128 | 8 | 4
3 | CC(=O)OCC1=C(C(=O)O)N2C(=O)[C@@H](NC(=O)Cc3cccs3)[C@H]2SC1 [CEPHALOTHIN] | > 64 | > 64 | 8 (≈ 20.2 µM) | – | – | –
4 | C[C@@H](O)[C@H]1C(=O)N2C(C(=O)O)=C(SCCNC=N)C[C@H]12 [IMIPENEM ANHYDROUS] | 0.25 (≈ 0.835 µM) | 0.25 (≈ 0.835 µM) | – | – | – | –
5 | CO/N=C(\C(=O)N[C@@H]1C(=O)N2C(C(=O)O)=C(COC(C)=O)CS[C@H]12)c1csc(N)n1 [CEFOTAXIME] | > 32 | > 32 | 0.06 (≈ 0.132 µM) | – | – | –
6 | CO[C@@]1(NC(=O)Cc2cccs2)C(=O)N2C(C(=O)O)=C(COC(N)=O)CS[C@@H]21 [CEFOXITIN] | 2 (≈ 4.68 µM) | 2 (≈ 4.68 µM) | 2 (≈ 4.68 µM) | – | – | –
7 | CC1(C)S[C@@H]2[C@H](NC(=O)[C@H](N)c3ccc(O)cc3)C(=O)N2[C@H]1C(=O)O [AMOXICILLIN] | > 256 | > 256 | 4 (≈ 10.9 µM) | 8 | 4 | 4
8 | CO/N=C(\C(=O)N[C@@H]1C(=O)N2C(C(=O)[O-])=C(C[N+]3(C)CCCC3)CS[C@H]12)c1csc(N)n1 [CEFEPIME] | 4 (≈ 8.32 µM) | 8 (≈ 16.6 µM) | – | – | – | –
